# Measurements taken from ChEMBL document CHEMBL1140365, “Investigation of glycine alpha-ketoamide HCV NS3 protease inhibitors: effect of carboxylic acid isosteres” (Bioorg Med Chem Lett, 2005).
# *1 amine or outer side, *2 acyl side, *3 side chain or, on linkers, in order; H or OH if unused. Where a SMILES comes first, the peptide text is derived from it. [ ]: non-standard residue; d: D form. The star is where a group is joined. Abu(ψCOCO) = CC[C@H](N[*:1])C(=O)C(=O)[*:2]; X1 = O=C(C(=O)[*:2])[C@H](CC(F)F)N[*:1]; Pyrazinecarbonyl = O=C(c1cnccn1)*; Cha = N[C@@H](CC1CCCCC1)C(=O)O
# Target: NS3 (Hepatitis C virus, UniProt A3EZJ3)
# Sequence (A3EZJ3 whole entry): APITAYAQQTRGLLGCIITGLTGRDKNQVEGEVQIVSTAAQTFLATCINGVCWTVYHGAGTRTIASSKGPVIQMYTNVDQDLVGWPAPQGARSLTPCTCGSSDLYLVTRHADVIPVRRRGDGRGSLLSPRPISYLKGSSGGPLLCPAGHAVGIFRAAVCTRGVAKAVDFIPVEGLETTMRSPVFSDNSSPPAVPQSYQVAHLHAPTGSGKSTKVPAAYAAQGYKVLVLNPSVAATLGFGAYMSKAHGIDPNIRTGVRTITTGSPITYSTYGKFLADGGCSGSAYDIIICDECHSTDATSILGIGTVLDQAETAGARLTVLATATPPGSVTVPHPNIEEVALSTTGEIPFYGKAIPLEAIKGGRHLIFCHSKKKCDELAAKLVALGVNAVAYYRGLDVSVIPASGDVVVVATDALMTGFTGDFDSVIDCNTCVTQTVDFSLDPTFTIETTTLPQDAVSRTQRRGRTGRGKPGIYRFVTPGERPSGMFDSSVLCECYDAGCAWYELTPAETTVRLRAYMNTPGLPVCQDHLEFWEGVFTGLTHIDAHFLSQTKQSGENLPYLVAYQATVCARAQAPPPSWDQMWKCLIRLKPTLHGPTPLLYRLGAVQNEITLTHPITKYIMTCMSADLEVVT
# Assay: Inhibitory concentration against glycine alpha-ketoamide HCV NS3 protease
# Set-up: species or system Hepacivirus hominis
row,Structure (SMILES),IC50
1,CC[C@H](NC(=O)[C@H](CC1CCCCC1)NC(=O)[C@@H](NC(=O)[C@H](CC(C)C)NC(=O)c1cnccn1)[C@@H](C)CC)C(=O)C(=O)NCC(=O)NS(=O)(=O)c1cccc(-c2ccccc2)c1,640 nM
2,CC[C@H](C)[C@H](NC(=O)[C@H](CC(C)C)NC(=O)c1cnccn1)C(=O)N[C@@H](CC1CCCCC1)C(=O)N[C@@H](CC(F)F)C(=O)C(=O)NCC(=O)NS(=O)(=O)c1cccc(-c2ccccc2)c1,60 nM
3,CC[C@H](C)[C@H](NC(=O)[C@H](CC(C)C)NC(=O)c1cnccn1)C(=O)N[C@@H](CC1CCCCC1)C(=O)N[C@@H](CC(F)F)C(=O)C(=O)NCC(=O)NS(=O)(=O)c1nnc(NC(=O)c2ccc(Cl)cc2)s1,20 nM
4,CC[C@H](NC(=O)[C@H](CC1CCCCC1)NC(=O)[C@@H](NC(=O)[C@H](CC(C)C)NC(=O)c1cnccn1)[C@@H](C)CC)C(=O)C(=O)NCC(=O)NS(=O)(=O)c1ccccc1,8900 nM
5,CC[C@H](C)[C@H](NC(=O)[C@H](CC(C)C)NC(=O)c1cnccn1)C(=O)N[C@@H](CC1CCCCC1)C(=O)N[C@@H](CC(F)F)C(=O)C(=O)NCC(=O)O (Pyrazinecarbonyl-LI[Cha][X1]G-OH),60 nM
6,CC[C@H](NC(=O)[C@H](CC1CCCCC1)NC(=O)[C@@H](NC(=O)[C@H](CC(C)C)NC(=O)c1cnccn1)[C@@H](C)CC)C(=O)C(=O)NCC(=O)NS(=O)(=O)c1cc(Cl)cc(Cl)c1,130 nM
7,CC[C@H](NC(=O)[C@H](CC1CCCCC1)NC(=O)[C@@H](NC(=O)[C@H](CC(C)C)NC(=O)c1cnccn1)[C@@H](C)CC)C(=O)C(=O)NCC(=O)O (Pyrazinecarbonyl-LI[Cha][Abu(ψCOCO)]G-OH),230 nM
8,CC[C@H](NC(=O)[C@H](CC1CCCCC1)NC(=O)[C@@H](NC(=O)[C@H](CC(C)C)NC(=O)c1cnccn1)[C@@H](C)CC)C(=O)C(=O)NCC(=O)NS(=O)(=O)c1cc(Cl)cc(S(=O)(=O)NC(=O)c2ccccc2)c1,120 nM
9,CCCCCC(=O)Nc1nnc(S(=O)(=O)NC(=O)CNC(=O)C(=O)[C@H](CC(F)F)NC(=O)[C@H](CC2CCCCC2)NC(=O)[C@@H](NC(=O)[C@H](CC(C)C)NC(=O)c2cnccn2)[C@@H](C)CC)s1,20 nM
10,CC[C@H](C)[C@H](NC(=O)[C@H](CC(C)C)NC(=O)c1cnccn1)C(=O)N[C@@H](CC1CCCCC1)C(=O)N[C@@H](CC(F)F)C(=O)C(=O)NCC(=O)NS(=O)(=O)c1cc(Cl)cc(S(=O)(=O)NC(=O)c2ccccc2)c1,60 nM
11,CC[C@H](NC(=O)[C@H](CC1CCCCC1)NC(=O)[C@@H](NC(=O)[C@H](CC(C)C)NC(=O)c1cnccn1)[C@@H](C)CC)C(=O)C(=O)NCS(=O)(=O)O,220 nM

# Further compounds by falling IC50, results first:
row,IC50,Structure (SMILES)
1,25000 nM,CC[C@H](NC(=O)[C@H](CC1CCCCC1)NC(=O)[C@@H](NC(=O)[C@H](CC(C)C)NC(=O)c1cnccn1)[C@@H](C)CC)C(=O)C(=O)NCC(=O)NS(C)(=O)=O
2,12000 nM,CC[C@H](NC(=O)[C@H](CC1CCCCC1)NC(=O)[C@@H](NC(=O)[C@H](CC(C)C)NC(=O)c1cnccn1)[C@@H](C)CC)C(=O)C(=O)NCC(=O)NS(=O)(=O)Cc1ccccc1
3,2400 nM,CC[C@H](NC(=O)[C@H](CC1CCCCC1)NC(=O)[C@@H](NC(=O)[C@H](CC(C)C)NC(=O)c1cnccn1)[C@@H](C)CC)C(=O)C(=O)NCC(=O)NS(=O)(=O)c1ccc(-c2ccccc2)cc1
4,1200 nM,CC[C@H](NC(=O)[C@H](CC1CCCCC1)NC(=O)[C@@H](NC(=O)[C@H](CC(C)C)NC(=O)c1cnccn1)[C@@H](C)CC)C(=O)C(=O)NCC(=O)NS(=O)(=O)c1ccc2ccccc2c1
5,920 nM,CC[C@H](NC(=O)[C@H](CC1CCCCC1)NC(=O)[C@@H](NC(=O)[C@H](CC(C)C)NC(=O)c1cnccn1)[C@@H](C)CC)C(=O)C(=O)NCC(=O)NS(=O)(=O)c1ccc([N+](=O)[O-])cc1
6,470 nM,CC[C@H](NC(=O)[C@H](CC1CCCCC1)NC(=O)[C@@H](NC(=O)[C@H](CC(C)C)NC(=O)c1cnccn1)[C@@H](C)CC)C(=O)C(=O)NCC(=O)NS(=O)(=O)C(F)(F)F
7,460 nM,CC[C@H](NC(=O)[C@H](CC1CCCCC1)NC(=O)[C@@H](NC(=O)[C@H](CC(C)C)NC(=O)c1cnccn1)[C@@H](C)CC)C(=O)C(=O)NCc1nn[nH]n1
8,410 nM,CC[C@H](NC(=O)[C@H](CC1CCCCC1)NC(=O)[C@@H](NC(=O)[C@H](CC(C)C)NC(=O)c1cnccn1)[C@@H](C)CC)C(=O)C(=O)NCC(=O)NS(=O)(=O)c1cccc([N+](=O)[O-])c1
9,250 nM,CC[C@H](NC(=O)[C@H](CC1CCCCC1)NC(=O)[C@@H](NC(=O)[C@H](CC(C)C)NC(=O)c1cnccn1)[C@@H](C)CC)C(=O)C(=O)NCC(=O)NS(=O)(=O)c1nnc(NC(C)=O)s1
10,250 nM,CC[C@H](NC(=O)[C@H](CC1CCCCC1)NC(=O)[C@@H](NC(=O)[C@H](CC(C)C)NC(=O)c1cnccn1)[C@@H](C)CC)C(=O)C(=O)NCC(=O)NS(=O)(=O)c1cccc(Cl)c1
11,110 nM,CC[C@H](NC(=O)[C@H](CC1CCCCC1)NC(=O)[C@@H](NC(=O)[C@H](CC(C)C)NC(=O)c1cnccn1)[C@@H](C)CC)C(=O)C(=O)NCC(=O)NS(=O)(=O)c1cc(C(=O)O)ccc1Cl
12,50 nM,CC[C@H](C)[C@H](NC(=O)[C@H](CC(C)C)NC(=O)c1cnccn1)C(=O)N[C@@H](CC1CCCCC1)C(=O)N[C@@H](CC(F)F)C(=O)C(=O)NCC(=O)NS(=O)(=O)c1cc(Cl)cc(S(N)(=O)=O)c1
13,40 nM,CC[C@H](C)[C@H](NC(=O)[C@H](CC(C)C)NC(=O)c1cnccn1)C(=O)N[C@@H](CC1CCCCC1)C(=O)N[C@@H](CC(F)F)C(=O)C(=O)NCc1nn[nH]n1
